From US20030091998A1, “Association of beta2-adrenergic receptor haplotypes with drug response” (priority 2000, published 2003)

Tested on: asthma patients
Assay: In vivo FEV1 (bronchodilator) response to albuterol in asthma patients, by β2AR haplotype pair
Set-up: species or system human
Protocol: The patients in the asthma cohort were enrolled from an outpatient facility as described in detail elsewhere (Yan, L., Galinsky, R. E., Bernstein, J. A., Liggett, S. B. & Weinshilboum, R. M. (1999) Pharmacogenetics in Press). […] Forced expiratory volume in 1 second (FEV1) and forced vital capacity (FVC) were determined in triplicate. The predicted values for these measurements were calculated based on standard algorithms (Morris, J. F., Koski, A. & Johnson, L. C. (1971) Am Rev Respir Dis 103, 57-67).
The association between changes in % predicted FEV1 and haplotype pair was assessed by fitting an analysis of covariance model (ANCOVA) with terms for haplotype pair, sex and baseline severity. P-values from pairwise comparisons by haplotype pair were adjusted for multiple comparisons by applying the Holm-Sidak step-down procedure (Ludbrook, J. (1998) Clin and Exp Pharmacology & Physiology 25, 1032-1037.). […] In addition, the African-American asthma patients were excluded from the analysis due to the low number of individuals in this population group. For the analysis of individual SNPs, a similar ANCOVA model was employed with a discrete term for SNP genotype, and terms for sex and baseline severity. The Holm-Sidak step-down procedure was used to adjust the p-values from the individual SNP analyses for the number of tests performed.
Pairwise tests were made while correcting for multiple comparisons. […] For this analysis, a similar ANCOVA model as above was utilized. […] Since 0, 1 or 2 copies of these two haplotypes are present in our population as haplotype pairs 2/2, 2/4 and 4/4, a potential gene dose effect can be assessed by regression analysis.

Compound: CC(C)(C)NCC(O)c1ccc(O)c(CO)c1 (centres unmarked) [albuterol]
- change % FEV1 (change in % predicted FEV1) (Caucasian asthma patients with β2AR haplotype pair 4/4, spirometry before and 30 min after inhalation of 180 μg albuterol by nebulization): 8.53±1.78%
- bronchodilator response to albuterol (asthmatic patients with β2AR haplotype pair 2/6): moderate bronchodilator response
- bronchodilator response to albuterol (asthmatic patients with β2AR haplotype pairs 2/2 and 4/6): respond well
- bronchodilator response to albuterol (asthmatic patients with β2AR haplotype pairs 2/4 and 4/4): little to no response
- greater response of haplotype pair 2/2 than haplotype pair 4/4 (in vivo FEV1 response, individuals with haplotype pair 2/2 vs 4/4 (FIG. 5)): ~50%
